Laboratory results: BindingDB's records for patent US10065961 (Ogeda, 2018)

Molecular target: T1, Neuromedin-K receptor (Homo sapiens, UniProt P29371)
T1 sequence (P29371 whole entry): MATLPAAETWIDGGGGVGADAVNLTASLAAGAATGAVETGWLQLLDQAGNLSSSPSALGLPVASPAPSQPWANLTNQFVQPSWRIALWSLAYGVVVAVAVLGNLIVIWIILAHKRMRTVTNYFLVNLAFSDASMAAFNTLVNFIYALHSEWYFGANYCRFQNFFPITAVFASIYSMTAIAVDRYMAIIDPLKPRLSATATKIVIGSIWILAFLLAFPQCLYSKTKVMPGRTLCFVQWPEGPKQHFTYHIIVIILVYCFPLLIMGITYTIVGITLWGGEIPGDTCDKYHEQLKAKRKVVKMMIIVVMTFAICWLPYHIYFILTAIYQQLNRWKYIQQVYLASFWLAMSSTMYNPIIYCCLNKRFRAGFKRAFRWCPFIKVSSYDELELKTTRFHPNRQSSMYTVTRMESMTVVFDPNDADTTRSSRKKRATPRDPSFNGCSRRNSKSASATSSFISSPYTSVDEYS
Test: Aequorin Assay with Human NK-3 Receptor

IC50: 51 nM
SMILES: Cc1coc(-c2nnc3n2CCN[C@@H]3C)n1 [US10065961, Compound 27]
